# Source: patent US20240316000A1, “METHODS OF TREATMENT” (DIFFUSION PHARMACEUTICALS LLC, priority 2021, published 2024)
# Assays:
# [1] = tested on: healthy volunteers exercising at altitude; assay: Crossover study in healthy volunteers exercising at simulated altitude of 15,000 feet (arterial blood gas, VO2 max, SpO2, lactate); assay type: in vivo, human
# Text: This is a double-blind, randomized, placebo-controlled crossover study designed to investigate TSC's effects on oxygen enhancement using an experimental model to induce hypoxia in study participants. The primary endpoints measured in this study are maximal oxygen consumption and partial pressure of arterial blood oxygen in normal healthy volunteers subjected to incremental levels of physical exertion while exposed to hypoxic and hypobaric conditions at a simulated altitude of 15,000 feet above sea level. The secondary endpoints are to assess the effect of TSC on SpO2 and lactate.
# A total of 30 healthy volunteers are enrolled in the trial with each subject serving as their own control by completing the experiment twice in a random, blinded order in the same day with a 3-hour rest and wash out period between experimental intervals. During one ascent, study subjects receive intravenous (IV) placebo administration and the other ascent the same subject receives a single IV dose of TSC at one of three dose levels (0.5 mg/kg, 1.5 mg/kg, or 2.5 mg/kg).
# Primary analyses will be based on sequence matched changes in median PaO2 and median VO2 following a single administration of TSC versus placebo in subjects exposed to simulated altitude and undergoing exercise. This is a crossover design, repeated measures study where each subject will serve as their own control. Each subject will be randomized to a TSC dose and will also be randomized to their altitude exposure sequence on the day of testing.
# [2] = tested on: healthy volunteers; assay: Transcutaneous oximetry (tcpO2) pharmacodynamic study, single IV bolus, subjects breathing 100% O2; assay type: in vivo, human; conditions: for Number (%) of Subjects with a TcpO2 increase during Period 2: TSC-treated N = 24, all doses
# Method: This is a randomized, double-blind, placebo-controlled, pharmacokinetic, pharmacodynamics study of Trans Sodium Crocetinate (TSC) utilizing Transcutaneous Oximetry Measurement (tcpO2) in healthy volunteers breathing 100% O2. Study assessments include tcpO2 levels, SpO2, and PK.
# TcpO2 sensor electrodes are applied to the left or right lower extremity, per PI discretion. Sensor electrode temperature is preset to 45° C., to allow maximum vasodilation. Risk of sensor site superficial burn is minimal given the relatively brief testing period. Four (4) sensors are applied to the following locations: • Sensor 1: Mid-dorsum of the foot • Sensor 2: 10 cm distal to the lateral femoral epicondyle • Sensor 3: 5 cm proximal to the anterior aspect of the lateral malleolus • Sensor 4: 5 cm proximal from the center of the medial malleolus
# After the tcpO2 sensors have been applied and tested, subjects are placed on O2 via a simple facemask at 6 L/minute, and remain on O2 for 70 minutes prior to study drug administration. The first 10 minutes allow for equilibration of O2 levels, and the subsequent 60 minutes serve as the baseline period. TcpO2 values and SpO2 are recorded every 5 minutes during the above periods. Baseline vital signs are measured within 10 minutes prior to study drug dosing.
# At the end of the 70-minute equilibration/baseline period, subjects continue on O2 and receive a single IV bolus injection of TSC at a dose of 0.5, 1.0, 1.5, 2.0 or 2.5 mg/kg, or placebo. After study drug administration, subjects are evaluated for 60 minutes, with tcpO2 values and SpO2 recorded every 5 minutes. In addition to assessment of tcpO2 every 5 minutes, continuous tcpO2 measurements are provided by the TCOM machine in graphical format.
# The primary analysis is based on the change over time in the tcpO2 measurements following a single administration of TSC in subjects breathing 100% O2. The time-matched changes from Period 1 (60 minute run-in on 100% O2) to Period 2 (60 minute post-drug administration on 100% O2) serve as the dependent variable in the repeated measures analysis. The 60 minute run-in on 100% O2 is intended to account for the intra-subject variability over time and the time-match differences represent the least biased estimate of the effect of the study drug.
# The overall pooled median values across the four TcpO2 sensors are calculated using the median value from each sensor during the same interval. To compare the time-matched changes in TcpO2, a 2-factor (treatment and time) repeated measures (time) analysis of variance (ANOVA) model is used. Contrast statements within the model facilitate comparisons between individual dose arms and placebo over time. Intra-subject changes (Period 2 minus Period 1 in 5-minute intervals) serve as the dependent variable in the model. TcpO2 baseline measures during the 60-minute Period 1 are adjusted for intra-subject variability over time. Time-matched differences between values obtained during Period 1 and Period 2 represent the least biased estimate of the effect of the study drug versus placebo.
# Therefore, a supplementary pharmacodynamic analysis on the intra-subject slopes from each period and sensor is performed. For Period 1, on an intra-subject basis, the median value from each of the 12 intervals is used to construct the slope using orthogonal spacing with respect to time. For Period 2, the slope is constructed using the median value from each of the 13 intervals—of note, Period 2 observations include 1- and 2-minute values—in addition to the 5-minute measurements for comparison to the 12 corresponding intervals of Period 1. An additional set of analyses are conducted using the Period 2 intra-subject slopes as the dependent variable. The active dose groups are pooled and the least square means are compared to placebo. This procedure is repeated iteratively, each time removing the next lowest dose group to determine the separation of each cohort's least square means relative to placebo.
# [3] = tested on: hemorrhagic shock; conditions: after hemorrhagic shock in rats; cited from earlier work
# [4] = 2.5 mg/kg, end of exercise and 10 minutes post-exercise
# [5] = change last exercise to 10-minutes post-exercise, 2.5 mg/kg vs other TSC doses and placebo
# [6] = last exercise value minus baseline, 2.5 mg/kg vs other TSC doses and placebo
# [7] = last exercise value, 2.5 mg/kg vs other TSC doses and placebo
smiles,measurement,setting,value
"CC(/C=C/C=C(\C)C(=O)[O-])=C\C=C\C=C(C)\C=C\C=C(/C)C(=O)O.[Na+] [TSC, trans sodium crocetinate]","Post-exercise recovery (pH, lactate, SpO2 and other markers)","[1]; 2.5 mg/kg, 10 minutes post-exercise versus last exercise measurements",positive effect on post-exercise recovery
same,Blood pH following exercise under hypoxic conditions,[1]; [4],increase in pH
same,Lactate following exercise under hypoxic conditions,[1]; [4],decrease in lactate
same,"Effects on pH at the end of the exercise period versus baseline, compared to placebo","[1]; 2.5 mg/kg, p<0.1",significantly different
same,Intra-day maximal oxygen consumption tests,"[1]; 0.5, 1.5, 2.5 mg/kg IV",no observed changes
same,Partial pressure of arterial blood oxygen,"[1]; 0.5, 1.5, 2.5 mg/kg IV",no observed changes
same,"pH, least square mean","[1]; 10-minute post-exercise change from baseline (smallest reduction), 2.5 mg/kg vs other TSC doses and placebo, p=0.01 vs placebo",highest least square mean value
same,"HCO3, least square mean","[1]; 10-minute post-exercise change from baseline, 2.5 mg/kg vs other TSC doses and placebo",highest least square mean value
same,"Lactic acid, least square mean","[1]; 10-minute post-exercise change from baseline, 2.5 mg/kg vs other TSC doses and placebo, p<0.05 vs 0.5 mg/kg",lowest least square mean value
same,"Oxygen saturation, least square mean","[1]; 10-minute post-exercise change from baseline, 2.5 mg/kg vs other TSC doses and placebo, p<0.05 vs 0.5 mg/kg, p=0.01 vs placebo",highest least square mean value
same,"PAO2, least square mean","[1]; 10-minute post-exercise change from baseline, 2.5 mg/kg vs other TSC doses and placebo, separates statistically from 0.5 mg/kg",highest least square mean value
same,"pH, change","[1]; change last exercise to 10-minutes post-exercise, 2.5 mg/kg",smallest change
same,"Lactic acid, least square mean","[1]; change last exercise to 10-minutes post-exercise, 2.5 mg/kg and 1.5 mg/kg vs other TSC doses and placebo",lowest least square mean value
same,"HCO3, least square mean",[1]; [5],highest least square mean value
same,"Oxygen saturation, least square mean",[1]; [5],highest least square mean value
same,"PACO2, least square mean",[1]; [5],highest least square mean value
same,"PAO2, least square mean",[1]; [5],highest least square mean value
same,"PAO2, least square mean","[1]; last exercise value minus baseline, 0.5 mg/kg TSC dose and placebo vs other TSC doses",lowest least square mean value
same,"HCO3, least square mean",[1]; [6],highest least square mean value
same,"Oxygen saturation, least square mean",[1]; [6],lowest least square mean value
same,"VO2 maximum, least square mean",[1]; [6],lowest least square mean value
same,"pH, least square mean","[1]; last exercise value minus baseline, 2.5 mg/kg vs other TSC doses and placebo, separates statistically from 0.5 mg/kg",highest least square mean value
same,"Lactic acid, least square mean","[1]; last exercise value minus baseline, 2.5 mg/kg vs other TSC doses and placebo, trend lower with dose",lowest least square mean value
same,"PACO2, least square mean",[1]; [7],highest least square mean value
same,"pH, least square mean",[1]; [7],highest least square mean value
same,"Lactic acid, least square mean","[1]; last exercise value, 2.5 mg/kg vs other TSC doses and placebo, p<0.1 vs 0.5 mg/kg, trend lower with dose",lowest least square mean value
same,"Oxygen saturation, least square mean","[1]; last exercise value, 2.5 mg/kg vs other TSC doses and placebo, p<0.1 vs 1.5 mg/kg",lowest least square mean value
same,"HCO3, least square mean","[1]; last exercise value, 2.5 mg/kg vs other TSC doses and placebo, separates statistically from 0.5 mg/kg",highest least square mean value
same,"PAO2, least square mean","[1]; last exercise value, 2.5 mg/kg vs other TSC doses and placebo, separates statistically from 1.5 mg/kg",lowest least square mean value
same,Sequence effect in subjects who received TSC in the first ascent of the day,"[1]; pH change from baseline, p<0.05 placebo first vs second",carry-over
same,"Oxygen saturation, least square mean","[1]; post-exercise value, 2.5 mg/kg vs other TSC doses and placebo",highest least square mean value
same,"PACO2, least square mean","[1]; post-exercise value, 2.5 mg/kg vs other TSC doses and placebo, p<0.05 vs 0.5 mg/kg",highest least square mean value
same,"Lactic acid, least square mean","[1]; post-exercise value, 2.5 mg/kg vs other TSC doses and placebo, p<0.05 vs 0.5 mg/kg, p=0.01 vs placebo",lowest least square mean value
same,"pH, least square mean","[1]; post-exercise value, 2.5 mg/kg vs other TSC doses and placebo, separates from 0.5 mg/kg, p=0.01 vs placebo",highest least square mean value
same,"HCO3, least square mean","[1]; post-exercise value, 2.5 mg/kg vs other TSC doses and placebo, separates statistically from 0.5 mg/kg",highest least square mean value
same,Dose giving the greatest difference in TcpO2 from placebo,[2]; 1-hour treatment period (Period 2),2.5 mg/kg
same,Peripheral oxygenation levels over time,"[2]; Period 2, placebo shows time related decrease",stable or increasing peripheral oxygenation levels over time
same,Number (%) of Subjects with a TcpO2 increase during Period 2,"[2]; Sensor 1 (mid-dorsum of the foot), placebo 1/5 (20.0%)",16/24 (66.7%)
same,"Intra-subject TcpO2 slopes, Least Square Mean","[2]; Sensor 1, pooling TSC doses ≥1.0 mg/kg, placebo −0.1878, probability 0.0960",0.3537
same,"Intra-subject TcpO2 slopes, Least Square Mean","[2]; Sensor 1, pooling TSC doses ≥1.5 mg/kg, placebo −0.1878, probability 0.1702",0.3027
same,"Intra-subject TcpO2 slopes, Least Square Mean","[2]; Sensor 1, pooling TSC doses ≥2.0 mg/kg, placebo −0.1878, probability 0.1430",0.4359
same,"Intra-subject TcpO2 slopes, Least Square Mean","[2]; Sensor 1, pooling all TSC doses, placebo −0.1878, probability 0.0876",0.3185
same,Number (%) of Subjects with a TcpO2 increase during Period 2,"[2]; Sensor 2, placebo 0/5",4/24 (16.7%)
same,"Intra-subject TcpO2 slopes, Least Square Mean","[2]; Sensor 2, pooling TSC doses ≥1.0 mg/kg, placebo −0.3481, probability 0.1139",0.0656
same,"Intra-subject TcpO2 slopes, Least Square Mean","[2]; Sensor 2, pooling TSC doses ≥1.5 mg/kg, placebo −0.3481, probability 0.1306",0.0149
same,"Intra-subject TcpO2 slopes, Least Square Mean","[2]; Sensor 2, pooling TSC doses ≥2.0 mg/kg, placebo −0.3481, probability 0.0959",0.0753
same,"Intra-subject TcpO2 slopes, Least Square Mean","[2]; Sensor 2, pooling all TSC doses, placebo −0.3481, probability 0.0796",0.0849
same,Number (%) of Subjects with a TcpO2 increase during Period 2,"[2]; Sensor 3, placebo 0/5",3/24 (12.5%)
same,"Intra-subject TcpO2 slopes, Least Square Mean","[2]; Sensor 3, pooling TSC doses ≥1.0 mg/kg, placebo −0.6320, probability 0.0301",0.0132
same,"Intra-subject TcpO2 slopes, Least Square Mean","[2]; Sensor 3, pooling TSC doses ≥1.5 mg/kg, placebo −0.6320, probability 0.0572",0.0249
same,"Intra-subject TcpO2 slopes, Least Square Mean","[2]; Sensor 3, pooling TSC doses ≥2.0 mg/kg, placebo −0.6320, probability 0.0421",0.0846
same,"Intra-subject TcpO2 slopes, Least Square Mean","[2]; Sensor 3, pooling all TSC doses, placebo −0.6320, probability 0.0186",0.0151
same,Number (%) of Subjects with a TcpO2 increase during Period 2,"[2]; Sensor 4, placebo 0/5",6/24 (25.0%)
same,"Intra-subject TcpO2 slopes, Least Square Mean","[2]; Sensor 4, pooling TSC doses ≥1.0 mg/kg, placebo −0.6389, probability 0.0213",0.0260
same,"Intra-subject TcpO2 slopes, Least Square Mean","[2]; Sensor 4, pooling TSC doses ≥1.5 mg/kg, placebo −0.6389, probability 0.0436",−0.0909
same,"Intra-subject TcpO2 slopes, Least Square Mean","[2]; Sensor 4, pooling TSC doses ≥2.0 mg/kg, placebo −0.6389, probability 0.0187",0.0297
same,"Intra-subject TcpO2 slopes, Least Square Mean","[2]; Sensor 4, pooling all TSC doses, placebo −0.6389, probability 0.0230",−0.0198
same,Increase in TcpO2 levels relative to placebo,"[2]; all TSC dose groups, supplemental analysis, Period 2",greater increase in TcpO2 levels than the placebo group
same,TCOM readings after TSC administration compared to placebo,"[2]; persists up to 60 minutes, most pronounced at 2.0 and 2.5 mg/kg iv",positive trend
same,Whole-body oxygen consumption,[3],increase whole-body oxygen consumption
